From ChEMBL document CHEMBL5143508, “Design, synthesis and biological evaluation of novel o-aminobenzamide derivatives as potential anti-gastric cancer agents in vitro and in vivo” (Eur J Med Chem, 2022) come the findings set out here.

Data set [1] relates to HGC-27. Kind of data set: Induction of apoptosis in human HGC-27 cells assessed as early apoptotic cells at 0.5 uM incubated for 48 hrs by annexin V FITC/propidium iodide staining based flow cytometry (reference value: 0.66 %). In kind it is functional.
Data set [2] has as its system HGC-27. Briefly: Induction of apoptosis in human HGC-27 cells assessed as upregulation in cytochrome c expression at 0.5 to 8 uM incubated for 48 hrs by Western blot analysis. As to conditions: dose 0.5-8 µM. The class given is functional, cell-based.
The subject of data set [3] is HGC-27. Briefly: Induction of cell cycle arrest in human HGC-27 cells assessed as upregulation of p27 expression at 0.5 to 8 uM incubated for 48 hrs by Western blot analysis. The class given is functional, cell-based. As to conditions: dose 0.5-8 µM.
For data set [4], the system named is HGC-27. Briefly: Induction of apoptosis in human HGC-27 cells assessed as necrotic cells at 0.5 uM incubated for 48 hrs by annexin V FITC/propidium iodide staining based flow cytometry (reference value: 1.24 %). The class given is functional.
Data set [5] deals with HGC-27. Kind of data set: Induction of apoptosis in human HGC-27 cells assessed as upregulation in Bax expression at 0.5 to 8 uM incubated for 48 hrs by Western blot analysis. In kind it is functional, cell-based. The conditions noted are these: dose 0.5-8 µM.
Data set [6] deals with HGC-27. Briefly: Induction of cell cycle arrest in human HGC-27 cells assessed as reduction in accumulation of cells at G0/G1 phase at 0.5 to 8 uM incubated for 24 hrs by PI staining based flow cytometry analysis. The class given is functional. The conditions noted are these: dose 0.5-8 µM.
Data set [7] deals with HGC-27. Briefly: Induction of apoptosis in human HGC-27 cells assessed as viable cells at 8 uM incubated for 48 hrs by annexin V FITC/propidium iodide staining based flow cytometry (reference value: 93.0 %). The class given is functional. As to conditions: read-out: Activity.
For data set [8], the system named is MGC-803. Briefly: Induction of cell cycle arrest in human MGC-803 cells assessed as reduction in accumulation of cells at G2/M phase at 2.5 to 10 uM incubated for 24 hrs by PI staining based flow cytometry analysis. The class given is functional. As to conditions: dose 2.5-10 µM.
For data set [9], the system named is HGC-27. Kind of data set: Induction of apoptosis in human HGC-27 cells assessed as late apoptotic cells at 2 uM incubated for 48 hrs by annexin V FITC/propidium iodide staining based flow cytometry (reference value: 5.14 %). In kind it is functional.
Data set [10] has as its system HGC-27. Briefly: Induction of apoptosis in human HGC-27 cells assessed as necrotic cells at 8 uM incubated for 48 hrs by annexin V FITC/propidium iodide staining based flow cytometry (reference value: 1.24 %). In kind it is functional.
For data set [11], the system named is MGC-803. Briefly: Induction of apoptosis in human MGC-803 cells assessed as viable cells at 2.5 uM incubated for 48 hrs by annexin V FITC/propidium iodide staining based flow cytometry (reference value: 94.4 %). In kind it is functional. As to conditions: read-out: Activity.
Data set [12] relates to MGC-803. Briefly: Induction of cell cycle arrest in human MGC-803 cells assessed as reduction in accumulation of cells at S phase at 2.5 to 10 uM incubated for 24 hrs by PI staining based flow cytometry analysis. In kind it is functional. As to conditions: dose 2.5-10 µM.
The test system of data set [13] is HGC-27. Kind of data set: Induction of cell cycle arrest in human HGC-27 cells assessed as upregulation of p21 expression at 0.1 to 1.6 uM incubated for 48 hrs by Western blot analysis. The conditions noted are these: dose 0.1-1.6 µM. In kind it is functional, cell-based.
The subject of data set [14] is HGC-27. Briefly: In vivo induction of cell cycle arrest in human HGC-27 cells xenografted in BALB/c mouse assessed as increase in p27 expression at 75 to 150 mg/kg, po bid administered for 19 days and measured by immunohistochemical analysis. The class given is functional, organism-based. The conditions noted are these: dose 75-150 mg/kg, time 19.0 day.
Data set [15] is described as follows: Toxicity in BALB/c mouse xenografted with human HGC-27 cells assessed as platelet distribution width at 75 mg/kg, po bid for 19 days. As to conditions: in vivo, 456 h, time 19 day. In kind it is organism-based.
The nature of data set [16]: Acute toxicity in Kunming mouse assessed as effect on lung pathology at 1000 mg/kg, po measured after 14 days. The class given is organism-based. As to conditions: in vivo, 336 h, time 14 day.
Data set [17] can be described thus: Toxicity in BALB/c mouse xenografted with human HGC-27 cells assessed as lymphocyte level at 75 mg/kg, po bid for 19 days. In kind it is organism-based. As to conditions: in vivo, 456 h, time 19 day.
The test system of data set [18] is HGC-27. Kind of data set: Induction of apoptosis in human HGC-27 cells assessed as late apoptotic cells at 0.1 uM incubated for 48 hrs by annexin V FITC/propidium iodide staining based flow cytometry (reference value: 5.14 %). The class given is functional.
The nature of data set [19]: Toxicity in BALB/c mouse xenografted with human HGC-27 cells assessed as RBC level at 150 mg/kg, po bid for 19 days. In kind it is organism-based, Erythrocyte. As to conditions: in vivo, 456 h, time 19 day.
The subject of another data set is SGC-7901. Kind of data set: cells. As to conditions: Homo sapiens, SGC-7901, 72 h. The class given is functional, cell-based.
Data set [20] can be described thus: Toxicity in BALB/c mouse xenografted with human HGC-27 cells assessed as mean corpuscular volume at 75 mg/kg, po bid for 19 days. In kind it is organism-based. The conditions noted are these: in vivo, 456 h, time 19 day.
Data set [21] can be described thus: Acute toxicity in Kunming mouse assessed as effect on spleen pathology at 1000 mg/kg, po measured after 14 days. The conditions noted are these: in vivo, 336 h, time 14 day. The class given is organism-based.
A short description of data set [22]: Toxicity in BALB/c mouse xenografted with human HGC-27 cells assessed as mean corpuscular volume at 150 mg/kg, po bid for 19 days. As to conditions: in vivo, 456 h, time 19 day. The class given is organism-based.
Another data set relates to BGC-823. Kind of data set: cells. The class given is functional, cell-based. The conditions noted are these: Homo sapiens, BGC-823, 72 h.
A short description of data set [23]: Toxicity in BALB/c mouse xenografted with human HGC-27 cells assessed as monocyte level at 150 mg/kg, po bid for 19 days. The conditions noted are these: in vivo, 456 h, time 19 day. The class given is organism-based.
Data set [24] is described as follows: Toxicity in BALB/c mouse xenografted with human HGC-27 cells assessed as RBC level at 75 mg/kg, po bid for 19 days. The conditions noted are these: in vivo, 456 h, time 19 day. The class given is organism-based, Erythrocyte.
Data set [25] can be described thus: Toxicity in BALB/c mouse xenografted with human HGC-27 cells assessed as monocyte level at 75 mg/kg, po bid for 19 days. The class given is organism-based. The conditions noted are these: in vivo, 456 h, time 19 day.
Data set [26] relates to HGC-27. Briefly: Induction of apoptosis in human HGC-27 cells assessed as upregulation in cleaved PARP expression at 0.1 to 1.6 uM incubated for 48 hrs by Western blot analysis. In kind it is functional, cell-based. As to conditions: dose 0.1-1.6 µM.
Data set [27] in a line: Toxicity in BALB/c mouse xenografted with human HGC-27 cells assessed as lymphocyte level at 150 mg/kg, po bid for 19 days. The class given is organism-based. As to conditions: in vivo, 456 h, time 19 day.
Data set [28] concerns HGC-27. Briefly: Induction of apoptosis in human HGC-27 cells assessed as late apoptotic cells at 1.6 uM incubated for 48 hrs by annexin V FITC/propidium iodide staining based flow cytometry (reference value: 5.14 %). In kind it is functional.
Data set [29] is described as follows: Toxicity in BALB/c mouse xenografted with human HGC-27 cells assessed as platelet level at 150 mg/kg, po bid for 19 days. In kind it is organism-based. As to conditions: in vivo, 456 h, time 19 day.
In data set [30] the test system is HGC-27. Briefly: In vivo induction of cell cycle arrest in human HGC-27 cells xenografted in BALB/c mouse assessed as decrease in CDK2 expression at 75 to 150 mg/kg, po bid administered for 19 days and measured by immunohistochemical analysis. In kind it is functional, organism-based. The conditions noted are these: dose 75-150 mg/kg, time 19.0 day.
Data set [31] is described as follows: Acute toxicity in Kunming mouse assessed as effect on kidney pathology at 1000 mg/kg, po measured after 14 days. In kind it is organism-based. The conditions noted are these: in vivo, 336 h, time 14 day.
The subject of data set [32] is HGC-27. Kind of data set: Antitumor activity against human HGC-27 cells xenografted in BALB/c mouse assessed as tumor growth inhibition at 75 mg/kg, po bid administered for 19 days. In kind it is functional. As to conditions: HGC-27, 456 h, time 19 day, read-out: TGI.
The test system of another data set is AGS. Briefly: cells. The class given is functional, cell-based. The conditions noted are these: Homo sapiens, 72 h.
Data set [33] concerns MGC-803. Kind of data set: Induction of cell cycle arrest in human MGC-803 cells assessed as reduction in accumulation of cells at S phase at 5 to 20 uM incubated for 24 hrs by PI staining based flow cytometry analysis. In kind it is functional. The conditions noted are these: dose 5-20 µM.

Values joined by “and” are separate entries in the source; they are usually repeats but may differ in a detail not shown here. Equal values may be shown once. Active and inactive are the calls of the source. The calls are words filed in the database; no cut-off is given here.

Description for AGS: Cytotoxicity against human AGS cells assessed as inhibition of cell growth incubated for 72 hrs by MTT assay
Description for BGC-823: Cytotoxicity against human BGC-823 cells assessed as inhibition of cell growth incubated for 72 hrs by MTT assay
Description for SGC-7901: Cytotoxicity against human SGC-7901 cells assessed as inhibition of cell growth incubated for 72 hrs by MTT assay

With `O=C(NCc1ccc(NC(=O)c2ccccc2N2CCCC2)cc1)OCc1cccnc1`, the Activity was found to be 0.92% in the data set with HGC-27 [1], 2.55% in the data set with HGC-27 [4], 55.9% in the data set with HGC-27 [9] and 11.1% with HGC-27 [10]. In addition, the outcome in the data set on HGC-27 [2], in the data set on HGC-27 [3], in the data set with HGC-27 [5], in the data set on HGC-27 [6], with MGC-803 [8] and in the data set with MGC-803 [12] was Active. Further, the viability at 8 µM with HGC-27 [7] was found to be 36.2%. Also, the viability at 2.5 µM with MGC-803 [11] is 80.3%.

In the case of `O=C(NCc1ccc(NC(=O)c2cc(F)ccc2N2CCCC2)cc1)OCc1cccnc1`, the outcome in the data set with HGC-27 [13], with HGC-27 [14], with HGC-27 [26], in the data set on HGC-27 [30] and with MGC-803 [33] was Active. Also, the Activity in data set [15] was 16.93; in data set [16], “Non-Toxic”; in [17] it was 5.03 10^9/L and 6.57%; with HGC-27 [18] it was 14.2%; in data set [19], 10.34 10^12/L; in data set [20], 49.83 fL. Also, the Activity entry is “Non-Toxic” in data set [21]; 49.83 fL in [22]; 1.7 10^9/L and 2.13% in [23]; 11.74 10^12/L in data set [24]; 1.57 10^9/L and 2.03% in data set [25]; 5.77 10^9/L and 7.2% in data set [27]. The Activity with HGC-27 [28] is reported as 69.4%; in data set [29] it was 1711 10^9/L; in [31] it was “Non-Toxic”. Besides, the results for the IC50 in the data set on SGC-7901, in the data set on BGC-823 and in the data set with AGS were 44.8 µM, 14.8 µM and 23.3 µM, respectively. In addition, the inhibition in vivo at 75 mg/kg in the data set on HGC-27 [32] was found to be 52.4%.
